According to patent publication US20260345609A1, “METHODS FOR PROMOTING PERSISTENCE OF CELL THERAPY” (Legend Biotech Ireland Limited, priority 2022, published 2026):

Key:
[1] = system: untransduced T cells (UnT); test: In vitro mixed lymphoid (MLR) model with CAR-γδT cells, UnT and U937 cells: host UnT cells; format: cell-based, human; conditions: 0.05 μM and 0.5 μM MTX; mixed culture with CAR-γδT and U937 cells
Method: To evaluate the ability of γδ T cells to tolerate allogeneic T cell rejection, an in vitro mixed lymphoid (MLR) model was established.
Using the T cells from a random healthy donor (B donor), CAR-γδT cells were prepared following the method in Example 1, as the graft cells. Un-transduced T cells (UnT) from another random healthy donor (T cell donor A) were also prepared, as the host cells.
The density of CLL1 positive human lymphoma cells (U937) was adjusted to 1×10^6 cells/mL. U937 cells were treated with 20 μg/mL mitomycin at 37° C. for 3 h, washed three times with 10 mL DPBS, and suspended in the culture medium. 20×10^6 untransduced T cells (UnT, T cell donor A), 1×10^6 CAR-γδT cells (T cell donor B), and 5×10^6 treated human lymphoma cells U937 were mixed and cultured in the medium. The cell mixture was divided into 3 groups, and 0 μM, 0.05 μM MTX, or 0.5 μM MTX was added, respectively. […] CAR-γδT cells were stimulated repeatedly with U937 cells at day0, day4, day7 at an E/T ratio of 1:1 According to the formula: fold change of cell number (UnT)=[cell number counted by AOPI×(CD3-/TCR VY9+%)]/20, fold change of cell number (CAR-γδT)=[cell number counted by AOPI×(CD3+/TCR Vγ9+%)]/1, the cell proliferation curves of UnT and CAR-γδT cells were plotted.

[2] = system: human gastric cancer cells NUGC4; test: In vivo efficacy in subcutaneous NUGC4 gastric cancer xenograft model, tumor volume; parameters: species or system NCG immunodeficient mice; human tumor cells; conditions: G5, 22.635 mg/kg MTX alone i.p., day5 to day35, p>0.05
Text: Refer to Example 1, the fusion gene sequence of SIV Nef M116-IRES-CD8α SP Claudin18.2 VHH-CD8α Hinge-CD8α TM-4-1BB-ITAM010 (SEQ ID NO: 5) was cloned into the expression plasmid pLVX-hEF1α to form the M1645 expression plasmid. The anti-Claudin18.2 VHH, as well as the antigen binding domain of CAR, have been disclosed in PCT/CN2020/139143. TGB23-6-IRES-DHFR L22F/F31S (SEQ ID NO: 7) was cloned into the expression plasmid pLVX-hEF1α to form the M1647 expression plasmid. The fusion protein of TGB23-6 is a signal converter, and has been described in PCT/CN2022/087016. To obtain LUCAR-GC cells, M1645 and M1647 were transduced into T cells. The production of Virus vector and the transduction of primary T were completed with reference to Example 1.
Severely immunodeficient NCG mice were used for in vivo efficacy evaluation. On day −14 before treatment, NCG immunodeficient mice were inoculated subcutaneously with tumor cells (3×10^6 human gastric cancer cells NUGC4/mouse). […] During the experiment, animal status, survival, tumor volume and body weight were measured twice a week. […] The proportion of transplanted cells (hCD45+%/live) in the peripheral blood of mice was counted.

[3] = system: LUCAR-GC cells; test: Expansion of transplanted LUCAR-GC cells in peripheral blood of NUGC4 xenograft mice (hCD45+%/live); format: in vivo, NCG immunodeficient mice; human cells; conditions: 22.635 mg/kg MTX i.p.
Text: Severely immunodeficient NCG mice were used for in vivo efficacy evaluation. On day −14 before treatment, NCG immunodeficient mice were inoculated subcutaneously with tumor cells (3×10^6 human gastric cancer cells NUGC4/mouse). The xenografted mice were divided into 5 groups ([…], G3, G4 and G5) on day 0, and received a single intravenous injection of HBSS (G1, G5), untransduced T cells (UnT) (G2, at a dose of 3.6×10^6 cells/mouse), LUCAR-GC cell preparation (G3 and G4, at a dose of 1×10^6 CAR+ cells/mouse). Mice in G4 and G5 groups were additionally given 22.635 mg/kg MTX by intraperitoneal injection on day5, day10, day 15, day20, day25, day30, day35, respectively. […] During the experiment, animal status, survival, tumor volume and body weight were measured twice a week. Blood was collected from the mouse eyeballs every week to separate cells, and then resuspended in DPBS with 1 μL of FITC anti human CD45 (Biolegend, 304038). The proportion of transplanted cells (hCD45+%/live) in the peripheral blood of mice was counted.

[4] = system: host PBMC cells (HLA-A2+); test: Effect of combination of fludarabine, cyclophosphamide and MTX on host immune cells (HLA-A2+) in peripheral blood; format: in vivo, NCG mice; human host cells; conditions: day 13
Text: pLVX-Puro vector purchased from Clontech was subjected to the digestion reaction of ClaI and EcoRI restriction enzymes. The CMV promoter was replaced with the human EF1α promoter (GenBank: J04617.1) to obtain the pLVX-hEF1α vector. The fusion gene sequence of SIV Nef_M116-P2A-DHFR L22F/F31S-IRES-CD8α SP-anti-BCMA antibody-CD8α Hinge-CD8αTM-4-1BB-ITAM010, hereinafter referred to as “LUCAR-BCMA” (SEQ ID NO: 6) was cloned into the expression plasmid pLVX-hEF1α to form the LUCAR-BCMA expression plasmid named as M1588. The anti-BCMA antibody contained herein has been disclosed in PCT/CN2020/136570. With reference to the virus vector production and primary T transduction in Example 1, LUCAR-BCMA cells were prepared.
Severely immunodeficient NCG mice were used for in vivo efficacy evaluation. The specific embodiment is as follows: at day-5.5 mice were intravenously inoculated with 20×10^6 PBMC cells (HLA-A2+) to construct host immune cells, and at day0 the mice were intravenously inoculated with 3×10^6 LUCAR-BCMA cells (HLA-A2−) as transplanted cells. The modeled mice were then treated with the following different combination of fludarabine, cyclophosphamide, and MTX to evaluate the inhibitory effect of the combination regimen on the host's immune system. “/” in Table 2 means no drug was administrated. The dose of fludarabine in each experimental group was 0.1623 mg/mice, the dose of cyclophosphamide was 1.623 mg/mice and the dose of MTX was 15.15 mg/kg (G3 and G4) or 75.45 mg/kg (G5 and G6). At day 13, the end point of the experiment, the peripheral blood white blood cells (WBC) of mice were measured. The peripheral blood cells of mice were resuspended in DPBS, and then 1 μL of FITC anti human CD45 (Biolegend, 304038) and 1 μL of PE anti human HLA-A2 (Biolegend, 343306) were added into the cell resuspension and incubated at 4° C. for 30 min. […] The proliferation of host PBMC cells in the peripheral blood of mice was evaluated, which reflected the effect of different combinations of drugs on host immunity in vivo.

SMILES: CN(Cc1cnc2nc(N)nc(N)c2n1)c1ccc(C(=O)N[C@@H](CCC(=O)O)C(=O)O)cc1 [MTX, methotrexate]
- proliferation of UnT cells [1]: significantly inhibited
- tumor volume compared with control G1 and G2 [2]: not significantly different
- expansion of LUCAR-GC cells in peripheral blood, presence or absence of MTX [3]: no significant difference in the expansion of LUCAR-GC cells
- inhibitory effect of MTX on the host immune cells, dose relation ([4]; 15.15 mg/kg (G3) vs 75.45 mg/kg (G5)): dose-dependent
- inhibitory effect on proliferation of host cells ([4]; FC regimen or MTX alone): the inhibitory effect was limited
- number of host cells in the peripheral blood compared with G1 blank group ([4]; G2: FC, G3: 15.15 mg/kg MTX, G5: 75.45 mg/kg MTX): lower than that of the G1 blank group
